Measured values reported in ChEMBL document CHEMBL1201862, “PubChem BioAssay data set” (2004).
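48-hour exposure; five concentrations; linearly interpolated endpoints. Here, GI50 denotes the concentration required for 50% inhibition of growth.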 The source made the active and inactive calls. No stated cut-off is given here; in the data, active = GI50 up to about 1.1 µM and inactive = higher.

Legend:
Experiment in all cases: DTP human tumour cell line panel, 48 h
[1] = test system: 786-0
[2] = test system: A498
[3] = test system: ACHN
[4] = test system: BT-549
[5] = test system: DU-145
[6] = test system: EKVX
[7] = test system: HCT-116
[8] = test system: LOX IMVI
[9] = test system: MDA-N
[10] = test system: MOLT-4
[11] = test system: NCI-H226
[12] = test system: NCI-H522
[13] = test system: OVCAR-5
[14] = test system: SN12C
[15] = test system: SNB-19
[16] = test system: SR
[17] = test system: SW-620
[18] = test system: UACC-62
[19] = test system: CAKI-1
[20] = test system: SF-539

Row | SMILES | GI50 [1] | GI50 [2] | GI50 [3] | GI50 [4] | GI50 [5] | GI50 [6] | GI50 [7] | GI50 [8] | GI50 [9] | GI50 [10] | GI50 [11] | GI50 [12] | GI50 [13] | GI50 [14] | GI50 [15] | GI50 [16] | GI50 [17] | GI50 [18] | GI50 [19] | GI50 [20]
1 | [N-]=[N+]=CC(=O)OC(CCl)CCl | > 100 µM (inactive) | > 100 µM (inactive) | > 100 µM (inactive) | > 100 µM (inactive) | > 100 µM (inactive) | > 100 µM (inactive) | > 100 µM (inactive) | 76 µM (inactive) | > 100 µM (inactive) | > 100 µM (inactive) | > 100 µM (inactive) | > 100 µM (inactive) | > 100 µM (inactive) | > 100 µM (inactive) | > 100 µM (inactive) | 37.5 µM (inactive) | > 100 µM (inactive) | > 100 µM (inactive) | – | –
2 | COc1ncc(C#CC(=O)c2ccccc2OC)c(OC)n1 | 1.86 µM (inactive) | 18.4 µM (inactive) | 1.69 µM (inactive) | 1.93 µM (inactive) | 5.87 µM (inactive) | 3.25 µM (inactive) | 4.98 µM (inactive) | 0.281 µM (active) | 1.64 µM (inactive) | 0.386 µM (active) | 1.42 µM (inactive) | 0.738 µM (active) | 3.41 µM (inactive) | 0.684 µM (active) | 15 µM (inactive) | 0.202 µM (active) | 0.78 µM (active) | 2.6 µM (inactive) | 1.77 µM (inactive) | –
3 | COC(=O)C1=C(OC(=O)c2ccccc2)C(C(=O)OC)[C@]2(O)[C@@H](C(=O)OC)[C@H]1C[C@@H](c1ccccc1)[C@@H]2C(=O)OC (stereo partly specified) | 16.4 µM (inactive) | 16.3 µM (inactive) | 10.9 µM (inactive) | 12.2 µM (inactive) | 9.4 µM (inactive) | 34 µM (inactive) | 3.96 µM (inactive) | 9.31 µM (inactive) | 1.95 µM (inactive) | 3.64 µM (inactive) | 2.56 µM (inactive) | – | 22.9 µM (inactive) | 8.43 µM (inactive) | 10.7 µM (inactive) | 8.87 µM (inactive) | 5.12 µM (inactive) | 11.6 µM (inactive) | 14.2 µM (inactive) | 2.2 µM (inactive)
4 | CC(=O)Oc1ccc(-c2cc3ccccc3oc2=O)cc1 | > 100 µM (inactive) | 38.9 µM (inactive) | > 100 µM (inactive) | > 100 µM (inactive) | > 100 µM (inactive) | 61.1 µM (inactive) | > 100 µM (inactive) | 81.3 µM (inactive) | > 100 µM (inactive) | 45.6 µM (inactive) | > 100 µM (inactive) | 21.8 µM (inactive) | > 100 µM (inactive) | > 100 µM (inactive) | > 100 µM (inactive) | 56.9 µM (inactive) | > 100 µM (inactive) | – | – | > 100 µM (inactive)
5 | N#CCCN(CCC#N)c1ccc(C(=N/c2ccc(F)cc2)/N=N/c2ccccc2)cc1 | > 100 µM (inactive) | > 100 µM (inactive) | > 100 µM (inactive) | 34 µM (inactive) | > 100 µM (inactive) | > 100 µM (inactive) | > 100 µM (inactive) | – | > 100 µM (inactive) | > 100 µM (inactive) | > 100 µM (inactive) | 21.7 µM (inactive) | > 100 µM (inactive) | > 100 µM (inactive) | > 100 µM (inactive) | 33 µM (inactive) | > 100 µM (inactive) | > 100 µM (inactive) | > 100 µM (inactive) | > 100 µM (inactive)
6 | COC(=O)c1c(OC(C)=O)ccc2c1c1c(OC(C)=O)c3ccccc3c(OC(C)=O)c1n2Cc1cc(OC)cc(OC)c1 | 36.5 µM (inactive) | 23.1 µM (inactive) | 30.8 µM (inactive) | 6.82 µM (inactive) | 38.5 µM (inactive) | 2.58 µM (inactive) | 7.82 µM (inactive) | – | 5.12 µM (inactive) | 17.2 µM (inactive) | 31.3 µM (inactive) | 3.06 µM (inactive) | > 100 µM (inactive) | 45.7 µM (inactive) | 9.2 µM (inactive) | 4.44 µM (inactive) | – | 4.41 µM (inactive) | 32.1 µM (inactive) | 3.09 µM (inactive)
